This note sets out measurements from US9474758B2, “Thienopyrimidinedione derivatives as TRPA1 modulators” (Glenmark Pharmaceuticals S.A., priority 2009, dated 2016).

Assay [1] has as its target T1, Human TRPA1 expressing CHO cells (Homo sapiens, UniProt O75762).
T1 construct: expressed in transfected cells; host or cells: CHO cells (G-418 selection)
As to the kind of experiment: 45Calcium uptake assay, inhibition of AITC induced calcium uptake (human). The assay is classed as cell-based. The settings on record: human TRPA1 CHO cells, AITC 30 μM; for inhibition at 1 µM: compound 1.0 μM, read-out: Percentage inhibition at 1.0 μM; for inhibition at 10 µM: compound 10.0 μM, read-out: Percentage inhibition at 10.0 μM; for IC50: read-out: Human IC50 value (Range). The method, then: (§1) Screening for TRPA1 Antagonist Using the ^45Calcium Uptake Assay:
(§2) The inhibition of TRPA1 receptor activation was measured as inhibition of allyl isothiocyanate (AITC) induced cellular uptake of radioactive calcium.
(§3) Test compounds were dissolved in 100% DMSO to prepare 10 mM stock and then diluted using plain medium with 0.1% BSA and 1.8 mM CaCl2 to get the desired concentration. The final concentration of DMSO in the reaction was 0.5% (v/v). […] Rat TRPA1 expressing CHO cells were grown in F-12 DMEM medium with 10% FBS, 1% penicillin-streptomycin solution, and 400 μg/ml of Zeocin. […] Cells were treated with the test compounds for 10 minutes followed by the addition of AITC at a final concentration of 30 μM (for human TRPA1) and/or 10 μM (for rat TRPA1) and 5 μCi/ml ^45Ca^+2 for 3 minutes. Cells were washed and lysed using a buffer containing 1% Triton X-100, 0.1% deoxycholate and 0.1% SDS. Radioactivity in the lysate was measured in a Packard TopCount after addition of liquid scintillant.
(§4) Concentration response curves were plotted as a % of maximal response obtained in the absence of test antagonist. IC50 values can be calculated from concentration response curve by nonlinear regression analysis using GraphPad PRISM software.

Assay [2] addresses T2, Rat TRPA1 expressing CHO cells (Rattus norvegicus, UniProt Q6RI86).
T2 construct: expressed in transfected cells; host or cells: CHO cells (Zeocin selection)
As to the kind of experiment: 45Calcium uptake assay, inhibition of AITC induced calcium uptake (rat). The note with it: rat TRPA1 CHO cells, AITC 10 μM; for IC50: read-out: Rat IC50 value (Range); for inhibition at 1 µM: compound 1.0 μM, read-out: Percentage inhibition at 1.0 μM; for inhibition at 10 µM: compound 10.0 μM, read-out: Percentage inhibition at 10.0 μM. The assay is classed as cell-based. The method, then: as §1, §2, §3, §4

Some results are limits rather than exact numbers.

T2 sequence (Q6RI86 whole entry): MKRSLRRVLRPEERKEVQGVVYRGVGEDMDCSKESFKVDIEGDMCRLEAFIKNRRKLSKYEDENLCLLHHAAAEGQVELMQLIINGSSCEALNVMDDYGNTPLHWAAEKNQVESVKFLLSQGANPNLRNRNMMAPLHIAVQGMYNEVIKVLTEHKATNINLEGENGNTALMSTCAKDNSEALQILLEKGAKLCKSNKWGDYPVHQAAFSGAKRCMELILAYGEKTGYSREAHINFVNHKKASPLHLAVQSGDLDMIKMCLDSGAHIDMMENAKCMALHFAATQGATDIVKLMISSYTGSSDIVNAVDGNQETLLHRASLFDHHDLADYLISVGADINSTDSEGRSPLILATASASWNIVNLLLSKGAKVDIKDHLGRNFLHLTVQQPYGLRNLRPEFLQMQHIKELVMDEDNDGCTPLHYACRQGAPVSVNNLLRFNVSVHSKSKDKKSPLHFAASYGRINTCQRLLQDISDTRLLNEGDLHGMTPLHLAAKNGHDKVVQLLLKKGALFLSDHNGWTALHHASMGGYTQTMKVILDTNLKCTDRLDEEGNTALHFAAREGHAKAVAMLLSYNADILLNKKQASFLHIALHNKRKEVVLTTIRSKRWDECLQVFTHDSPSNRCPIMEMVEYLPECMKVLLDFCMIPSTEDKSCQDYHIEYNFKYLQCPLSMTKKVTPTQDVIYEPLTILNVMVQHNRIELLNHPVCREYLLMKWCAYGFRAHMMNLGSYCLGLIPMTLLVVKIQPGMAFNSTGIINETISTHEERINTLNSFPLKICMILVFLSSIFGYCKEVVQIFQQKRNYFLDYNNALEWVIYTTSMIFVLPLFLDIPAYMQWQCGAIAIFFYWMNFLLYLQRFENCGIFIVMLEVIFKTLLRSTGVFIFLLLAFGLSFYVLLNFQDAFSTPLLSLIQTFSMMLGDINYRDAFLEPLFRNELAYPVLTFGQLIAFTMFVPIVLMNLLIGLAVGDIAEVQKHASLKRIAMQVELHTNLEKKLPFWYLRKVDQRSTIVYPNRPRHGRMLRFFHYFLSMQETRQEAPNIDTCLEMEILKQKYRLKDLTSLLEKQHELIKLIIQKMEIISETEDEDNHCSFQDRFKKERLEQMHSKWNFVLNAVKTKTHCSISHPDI
T1 sequence (O75762 whole entry): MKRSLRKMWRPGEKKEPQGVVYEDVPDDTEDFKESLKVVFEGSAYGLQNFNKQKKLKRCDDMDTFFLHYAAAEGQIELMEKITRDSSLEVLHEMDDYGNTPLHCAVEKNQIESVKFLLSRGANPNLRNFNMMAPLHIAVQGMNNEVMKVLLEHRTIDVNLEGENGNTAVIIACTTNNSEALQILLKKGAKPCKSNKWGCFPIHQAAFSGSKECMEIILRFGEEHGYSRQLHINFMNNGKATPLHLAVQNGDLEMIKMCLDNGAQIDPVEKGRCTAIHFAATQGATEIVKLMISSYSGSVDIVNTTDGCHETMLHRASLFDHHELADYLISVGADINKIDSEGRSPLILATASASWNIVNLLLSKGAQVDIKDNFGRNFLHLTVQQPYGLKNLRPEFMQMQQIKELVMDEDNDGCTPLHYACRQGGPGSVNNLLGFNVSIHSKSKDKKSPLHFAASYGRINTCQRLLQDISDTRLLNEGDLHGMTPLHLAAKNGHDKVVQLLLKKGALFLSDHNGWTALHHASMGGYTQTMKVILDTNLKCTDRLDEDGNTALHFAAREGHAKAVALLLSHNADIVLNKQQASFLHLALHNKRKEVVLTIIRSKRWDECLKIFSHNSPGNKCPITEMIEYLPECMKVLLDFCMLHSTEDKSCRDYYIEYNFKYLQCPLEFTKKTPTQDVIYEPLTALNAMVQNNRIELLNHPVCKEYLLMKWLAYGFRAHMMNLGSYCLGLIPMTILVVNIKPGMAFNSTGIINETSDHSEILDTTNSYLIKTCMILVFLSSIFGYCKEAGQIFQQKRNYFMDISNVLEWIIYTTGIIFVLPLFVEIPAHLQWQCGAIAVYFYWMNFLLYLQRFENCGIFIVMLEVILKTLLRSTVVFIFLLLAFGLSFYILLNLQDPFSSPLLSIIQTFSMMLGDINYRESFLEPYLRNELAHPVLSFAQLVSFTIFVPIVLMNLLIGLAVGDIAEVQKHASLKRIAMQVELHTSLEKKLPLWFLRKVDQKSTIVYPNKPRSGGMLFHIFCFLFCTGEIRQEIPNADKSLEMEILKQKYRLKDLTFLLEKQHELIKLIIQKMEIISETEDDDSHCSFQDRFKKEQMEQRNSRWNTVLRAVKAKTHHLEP

As usually defined, the inhibition is the percentage by which the read-out fell short of the control. One may read the IC50 as the point on the concentration scale where inhibition reaches its midpoint. In the case of `Cn1c(=O)c2c(CC(=O)Nc3nc(-c4ccc(C(F)(F)F)c(F)c4)cs3)csc2n(C)c1=O` [Example 5, 2-(1,3-Dimethyl-2,4-dioxo-1,2,3,4-tetrahydrothieno[2,3-d]pyrimidin-5-yl)-N-{4-[3-fluoro-4-(trifluoromethyl)phenyl]-1,3-thiazol-2-yl}acetamide], in assay [1], the inhibition at 1 µM came out at 95.3%, the inhibition at 10 µM came out at 99.9% and the IC50 is < 50 nM. For the same molecule, in assay [2], the IC50 was < 50 nM.
Regarding `Cc1sc2c(c1CC(=O)Nc1nc(-c3ccc(C(C)(C)C)cc3)cs1)c(=O)n(C)c(=O)n2C` [Example 17, N-[4-(4-tert-Butylphenyl)-1,3-thiazol-2-yl]-2-(1,3,6-trimethyl-2,4-dioxo-1,2,3,4-tetrahydrothieno[2,3-d]pyrimidin-5-yl)acetamide], in assay [1], the inhibition at 1 µM turned out to be 97.5%, the inhibition at 10 µM came out at 98.8% and the IC50 was 50 to 500 nM. In assay [2], the inhibition at 1 µM was 93.1%, the inhibition at 10 µM was 99.2% and the half-maximal inhibitory concentration (IC50) was 50 to 500 nM.
On to `CC(C)c1sc2c(c1CC(=O)Nc1nc(-c3ccc(C(F)(F)F)c(F)c3)cs1)c(=O)n(C)c(=O)n2C` [Example 37, N-{4-[3-Fluoro-4-(trifluoromethyl)phenyl]-1,3-thiazol-2-yl}-2-(6-isopropyl-1,3-dimethyl-2,4-dioxo-1,2,3,4-tetrahydrothieno[2,3-d]pyrimidin-5-yl)acetamide], for which, in assay [1], the inhibition at 1 µM was found to be 99%, the inhibition at 10 µM turned out to be 97.7% and the IC50 is < 50 nM. Further, in assay [2], the inhibition at 1 µM came out at 94.9%, the inhibition at 10 µM was 97% and the IC50 was < 50 nM.
On to `Cn1c(=O)c2c(CC(=O)Nc3nc(-c4ccc(C(F)(F)F)cc4)cs3)scc2n(C)c1=O` [Example 47], for which, in assay [1], the inhibition at 1 µM amounted to 97.9%, the inhibition at 10 µM was 98.8% and the IC50 was < 50 nM. Further, in assay [2], the inhibition at 1 µM was 88.9% and the inhibition at 10 µM is 99.6%.
For `Cn1c(=O)c2c(CC(=O)Nc3nc(-c4ccc(Cl)c(Cl)c4)cs3)csc2n(C)c1=O` [Example 12, N-[4-(3,4-Dichlorophenyl)-1,3-thiazol-2-yl]-2-(1,3-dimethyl-2,4-dioxo-1,2,3,4-tetrahydrothieno[2,3-d]pyrimidin-5-yl)acetamide], in assay [1], the inhibition at 1 µM worked out at 99.7%, the inhibition at 10 µM was 99.8% and the half-maximal inhibitory concentration (IC50) is < 50 nM. In addition, in assay [2], the inhibition at 1 µM turned out to be 97.8%, the inhibition at 10 µM was found to be 100% and the half-maximal inhibitory concentration (IC50) lay within 50 to 500 nM.
For `Cn1c(=O)c2c(CC(=O)Nc3nc(-c4ccc(C(F)(F)F)c(F)c4F)cs3)scc2n(C)c1=O` [Example 56, N-{4-[2,3-Difluoro-4-(trifluoromethyl)phenyl]-1,3-thiazol-2-yl}-2-(1,3-dimethyl-2,4-dioxo-1,2,3,4-tetrahydrothieno[3,4-d]pyrimidin-5-yl)acetamide], in assay [1], the inhibition at 1 µM came to 94.4%, the inhibition at 10 µM was determined as 99.5% and the 50% inhibitory concentration (IC50) was < 50 nM. Moreover, in assay [2], the inhibition at 1 µM stood at 96.9%, the inhibition at 10 µM is 100% and the IC50 fell in the range of 50 to 500 nM.
Take `Cc1sc2c(c1CC(=O)Nc1nc(-c3cccc(F)c3F)cs1)c(=O)n(C)c(=O)n2C` [Example 21, N-[4-(2,3-Difluorophenyl)-1,3-thiazol-2-yl]-2-(1,3,6-trimethyl-2,4-dioxo-1,2,3,4-tetrahydrothieno[2,3-d]pyrimidin-5-yl)acetamide]: in assay [1], the inhibition at 1 µM was 95.4%, the inhibition at 10 µM worked out at 100% and the concentration for half-maximal inhibition (IC50) fell in the range of 50 to 500 nM. Further, in assay [2], the inhibition at 1 µM stood at 93.5% and the inhibition at 10 µM worked out at 99.7%.
Consider `Cn1c(=O)c2c(CC(=O)Nc3nc(-c4cc(F)c(C(F)(F)F)c(F)c4)cs3)csc2n(C)c1=O` [Example 16, N-{4-[3,5-Difluoro-4-(trifluoromethyl)phenyl]-thiazol-2-yl}-2-(1,3-dimethyl-2,4-dioxo-1,2,3,4-tetrahydrothieno[2,3-d]pyrimidin-5-yl)acetamide], for which, in assay [1], the inhibition at 1 µM was 99.1%, the inhibition at 10 µM amounted to 99.1% and the 50% inhibitory concentration (IC50) was < 50 nM. In addition, in assay [2], the inhibition at 1 µM came to 38.7% and the inhibition at 10 µM was found to be 98.7%.
For the molecule `Cn1c(=O)c2c(CC(=O)Nc3nc(-c4ccc(F)c(C(F)(F)F)c4F)cs3)scc2n(C)c1=O` [Example 57, N-{4-[2,4-Difluoro-3-(trifluoromethyl)phenyl]-1,3-thiazol-2-yl}-2-(1,3-dimethyl-2,4-dioxo-1,2,3,4-tetrahydrothieno[3,4-d]pyrimidin-5-yl)acetamide], in assay [1], the inhibition at 1 µM is 96.9%, the inhibition at 10 µM turned out to be 91% and the half-maximal inhibitory concentration (IC50) is < 50 nM. Also, in assay [2], the inhibition at 1 µM came to 97%, the inhibition at 10 µM came out at 100% and the 50% inhibitory concentration (IC50) was < 50 nM.
For the molecule `Cn1c(=O)c2c(CC(=O)Nc3nc(-c4ccc(F)c(C(F)(F)F)c4)cs3)csc2n(C)c1=O` [Example 6, 2-(1,3-Dimethyl-2,4-dioxo-1,2,3,4-tetrahydrothieno[2,3-d]pyrimidin-5-yl)-N-{4-[4-fluoro-3-(trifluoromethyl)phenyl]-1,3-thiazol-2-yl}acetamide], in assay [1], the inhibition at 1 µM worked out at 100%, the inhibition at 10 µM was 100% and the half-maximal inhibitory concentration (IC50) is < 50 nM. Further, in assay [2], the inhibition at 1 µM is 99.7%, the inhibition at 10 µM came to 99.9% and the IC50 lay in the range of 50 to 500 nM.
Turning to `Cn1c(=O)c2c(CC(=O)Nc3nc(-c4ccc(OC(F)(F)F)c(F)c4)cs3)csc2n(C)c1=O` [Example 11, 2-(1,3-Dimethyl-2,4-dioxo-1,2,3,4-tetrahydrothieno[2,3-d]pyrimidin-5-yl)-N-{4-[3-fluoro-4-(trifluoromethoxy)phenyl]-1,3-thiazol-2-yl}acetamide], in assay [1], the inhibition at 1 µM worked out at 98.6%, the inhibition at 10 µM came out at 97.1% and the IC50 was < 50 nM. Besides, in assay [2], the inhibition at 1 µM was 98.8%, the inhibition at 10 µM is 99.8% and the IC50 is < 50 nM.
As to `Cc1sc2c(c1CC(=O)Nc1nc(-c3ccc(F)c(OC(F)(F)F)c3)cs1)c(=O)n(C)c(=O)n2C` [Example 25, N-{4-[4-Fluoro-3-(trifluoromethoxy)phenyl]-1,3-thiazol-2-yl}-2-(1,3,6-trimethyl-2,4-dioxo-1,2,3,4-tetrahydrothieno[2,3-d]pyrimidin-5-yl)acetamide], in assay [1], the inhibition at 1 µM was 98.5%, the inhibition at 10 µM is 98.8% and the IC50 is < 50 nM. Besides, in assay [2], the inhibition at 1 µM was found to be 99.2%, the inhibition at 10 µM worked out at 99.3% and the IC50 is 50 to 500 nM.
For the molecule `Cc1sc2c(c1CC(=O)Nc1nc(-c3ccc(C(F)(F)F)c(F)c3)cs1)c(=O)n(C)c(=O)n2C` [Example 24, N-{4-[3-Fluoro-4-(trifluoromethyl)phenyl]-1,3-thiazol-2-yl}-2-(1,3,6-trimethyl-2,4-dioxo-1,2,3,4-tetrahydrothieno[2,3-d]pyrimidin-5-yl)acetamide], in assay [1], the inhibition at 1 µM came to 98.5%, the inhibition at 10 µM worked out at 99.9% and the IC50 was < 50 nM. Further, in assay [2], the inhibition at 1 µM worked out at 99.8%, the inhibition at 10 µM worked out at 100% and the IC50 is 50 to 500 nM.
